pIC50: −log10 of the molar value.
What follows are molecules tested against SAE (Homo sapiens (Human), UniProt Q9UBT2) (assay: In vitro inhibitory activity assay against SAE (SUMO-2/3 immunofluorescence in HCT116 cells)). Conditions: 6 h incubation, class symbols, read-out: SUMO IF IC50.
Type: cell-based
Method in brief: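 HCT116 cells treated with compounds for 6 h at 37 °C, then fixed, permeabilized and immunostained for SUMO-2/3 with FITC secondary detection. Fluorescence compared with DMSO control to give inhibition rate and IC50.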

Chain of SAE (Q9UBT2 whole entry): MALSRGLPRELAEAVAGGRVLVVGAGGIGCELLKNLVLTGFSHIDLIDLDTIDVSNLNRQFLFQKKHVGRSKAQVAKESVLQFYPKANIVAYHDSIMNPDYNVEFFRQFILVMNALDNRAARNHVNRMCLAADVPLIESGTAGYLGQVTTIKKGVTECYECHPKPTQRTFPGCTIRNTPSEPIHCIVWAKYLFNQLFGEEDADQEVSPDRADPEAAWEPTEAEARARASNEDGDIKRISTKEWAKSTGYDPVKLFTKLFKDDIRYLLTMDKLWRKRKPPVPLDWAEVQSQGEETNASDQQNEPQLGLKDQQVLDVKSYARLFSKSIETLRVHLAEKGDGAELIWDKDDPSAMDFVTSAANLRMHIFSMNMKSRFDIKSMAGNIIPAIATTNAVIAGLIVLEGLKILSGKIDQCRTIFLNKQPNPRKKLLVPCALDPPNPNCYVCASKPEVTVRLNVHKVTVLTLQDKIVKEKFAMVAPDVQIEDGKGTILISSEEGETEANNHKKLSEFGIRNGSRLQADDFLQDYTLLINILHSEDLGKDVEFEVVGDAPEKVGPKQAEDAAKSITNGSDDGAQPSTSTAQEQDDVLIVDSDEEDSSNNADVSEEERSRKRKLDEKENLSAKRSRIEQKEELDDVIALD
Chain of SAE (Q9UBE0 whole entry partner): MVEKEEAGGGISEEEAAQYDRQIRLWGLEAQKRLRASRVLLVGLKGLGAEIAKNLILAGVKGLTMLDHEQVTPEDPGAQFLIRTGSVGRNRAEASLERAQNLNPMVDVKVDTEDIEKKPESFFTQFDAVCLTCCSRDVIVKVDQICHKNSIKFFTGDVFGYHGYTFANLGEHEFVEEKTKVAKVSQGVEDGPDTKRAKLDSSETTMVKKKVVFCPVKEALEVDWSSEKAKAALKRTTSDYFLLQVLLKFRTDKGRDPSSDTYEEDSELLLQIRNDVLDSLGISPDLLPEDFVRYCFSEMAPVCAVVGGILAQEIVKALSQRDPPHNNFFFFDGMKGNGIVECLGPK

| SMILES | pIC50 |
| --- | --- |
| NS(=O)(=O)OC[C@H]1C[C@@H](Nc2ncncc2C(=O)c2cc3c(s2)CC[C@]32NC3(CC3)Cc3ccc(Cl)cc32)C[C@@H]1O [Compound 241] | 6.70 to 7.30 |
| Cc1ccc2c(c1)[C@@]1(CCCc3sc(C(=O)c4cncnc4N[C@@H]4C[C@H](COS(N)(=O)=O)[C@@H](O)C4)cc31)NCC2 [Compound 202] | 6.70 to 7.30 |
| NS(=O)(=O)OC[C@H]1C[C@@H](Nc2ncncc2C(=O)c2cc3c(s2)CCC[C@@]32NCCc3ccccc32)C[C@@H]1O [Compound 2] | < 6.70 |
| COc1ccc2c(c1)[C@]1(CCCc3sc(C(=O)c4cncnc4N[C@@H]4C[C@H](COS(N)(=O)=O)[C@@H](O)C4)cc31)NCC2 [Compound 179] | < 6.70 |
| NS(=O)(=O)OC[C@H]1C[C@@H](Nc2ncncc2C(=O)c2cc3c(s2)CCC32NCCc3cc(Cl)ncc32)C[C@@H]1O (some centres unmarked) [Compound 77] | 6.70 to 7.30 |
| NS(=O)(=O)OC[C@H]1C[C@@H](Nc2ncncc2C(=O)c2cc3c(s2)COC[C@]32NCCc3c(F)cc(Cl)cc32)C[C@@H]1O [Compound 111] | 6.70 to 7.30 |
| NS(=O)(=O)CC[C@H]1C[C@@H](Nc2ncncc2C(=O)c2cc3c(s2)CSC[C@]32NCCc3ncc(Cl)cc32)C[C@@H]1O [Compound 150] | ≥ 7.30 |
| C#CCN1Cc2sc(C(=O)c3cncnc3N[C@@H]3C[C@H](COS(N)(=O)=O)[C@@H](O)C3)cc2C2(C1)NCCc1ccc(Cl)cc12 (some centres unmarked) [Compound 193] | ≥ 7.30 |
| NS(=O)(=O)OC[C@H]1C[C@@H](Nc2ncncc2C(=O)c2cc3c(s2)CCC32NCCc3ccc(F)cc32)C[C@@H]1O (some centres unmarked) [Compound 49] | 6.70 to 7.30 |
| N#Cc1ccc2c(c1)C1(C=Cc3sc(C(=O)c4cncnc4N[C@@H]4C[C@H](COS(N)(=O)=O)[C@@H](O)C4)cc31)OCC2 (some centres unmarked) [Compound 298] | 6.70 to 7.30 |
| N#Cc1ccc2c(c1)[C@@]1(C=Cc3sc(C(=O)c4cncnc4N[C@@H]4C[C@H](COS(N)(=O)=O)[C@@H](O)C4)cc31)OCC2 [Compound 300] | ≥ 7.30 |
| NS(=O)(=O)OC[C@H]1C[C@@H](Nc2ncncc2C(=O)c2cc3c(s2)CCC[C@@]32NC(=O)Cc3ccc(Cl)cc32)C[C@@H]1O [Compound 164] | < 6.70 |
| NS(=O)(=O)OC[C@H]1C[C@@H](Nc2ncncc2C(=O)c2cc3c(s2)COCC32NCCc3ccccc32)C[C@@H]1O (some centres unmarked) [Compound 13] | < 6.70 |
| NS(=O)(=O)OC[C@H]1C[C@@H](Nc2ncncc2C(=O)c2nc3c(s2)CCC[C@]32NCCc3ccc(Cl)cc32)C[C@@H]1O [Compound 126] | < 6.70 |
| NS(=O)(=O)OC[C@H]1C[C@@H](Nc2ncncc2C(=O)c2cc3c(s2)CSCC32NCCc3ccc(F)cc32)C[C@@H]1O (some centres unmarked) [Compound 88] | ≥ 7.30 |
| CC(C)N1Cc2sc(C(=O)c3cncnc3N[C@@H]3C[C@H](COS(N)(=O)=O)[C@@H](O)C3)cc2C2(C1)NCCc1ccc(Cl)cc12 (some centres unmarked) [Compound 184] | ≥ 7.30 |
| NS(=O)(=O)OC[C@H]1C[C@@H](Nc2ncncc2C(=O)c2cc3c(s2)C=CC32OCCc3ccccc32)C[C@@H]1O (some centres unmarked) [Compound 289] | 6.70 to 7.30 |
| CCN1Cc2sc(C(=O)c3cncnc3N[C@@H]3C[C@H](COS(N)(=O)=O)[C@@H](O)C3)cc2[C@@]2(C1)OCCc1ccc(F)cc12 [Compound 263] | < 6.70 |
| NS(=O)(=O)OC[C@H]1C[C@@H](Nc2ncncc2C(=O)c2nc3c(s2)CCC[C@@]32NCCc3ccc(Cl)cc32)C[C@@H]1O [Compound 122] | < 6.70 |
| N#Cc1ccc2c(c1)[C@@]1(CCc3sc(C(=O)c4cncnc4N[C@@H]4C[C@H](COS(N)(=O)=O)[C@@H](O)C4)cc31)OCC2 [Compound 288] | ≥ 7.30 |
| NS(=O)(=O)OC[C@H]1C[C@@H](Nc2ncncc2C(=O)c2cc3c(s2)CSCC32NCCc3ccccc32)C[C@@H]1O (some centres unmarked) [Compound 85] | < 6.70 |
| N#Cc1ccc2c(c1)C1(CCc3sc(C(=O)c4cncnc4N[C@@H]4C[C@H](COS(N)(=O)=O)[C@@H](O)C4)cc31)OCC2 (some centres unmarked) [Compound 286] | 6.70 to 7.30 |
| NS(=O)(=O)OC[C@H]1C[C@@H](Nc2ncncc2C(=O)c2cc3c(s2)CO[C@]32NCCc3ccc(Cl)cc32)C[C@@H]1O [Compound 239] | 6.70 to 7.30 |
| [2H]C1([2H])CNC2(CCCc3sc(C(=O)c4cncnc4N[C@@H]4C[C@H](COS(N)(=O)=O)[C@@H](O)C4)cc32)c2cc(Cl)ccc21 (some centres unmarked) [Compound 199] | ≥ 7.30 |
| NS(=O)(=O)OC[C@H]1C[C@@H](Nc2ncncc2C(=O)c2cc3c(s2)CSCC32NCCc3ncc(Cl)cc32)C[C@@H]1O (some centres unmarked) [Compound 148] | 6.70 to 7.30 |

| SMILES | pIC50 |
| --- | --- |
| NS(=O)(=O)OC[C@H]1C[C@@H](Nc2ncncc2C(=O)c2cc3c(s2)CCC[C@]32NC(=O)Cc3ccc(Cl)cc32)C[C@@H]1O [Compound 165] | < 6.70 |
| NS(=O)(=O)OC[C@H]1C[C@@H](Nc2ncncc2C(=O)c2cc3c(s2)CC[C@]32OCCc3ccc(Cl)cc32)C[C@@H]1O [Compound 243] | ≥ 7.30 |
| NS(=O)(=O)OC[C@H]1C[C@@H](Nc2ncncc2C(=O)c2cc3c(s2)C=CCC32NCCc3ccc(Cl)cc32)C[C@@H]1O (some centres unmarked) [Compound 36] | ≥ 7.30 |
| NS(=O)(=O)OC[C@H]1C[C@@H](Nc2ncncc2C(=O)c2cc3c(s2)CN(C2CC2)C[C@@]32OCCc3ccc(Cl)cc32)C[C@@H]1O [Compound 278] | < 6.70 |
| NS(=O)(=O)OC[C@H]1C[C@@H](Nc2ncncc2C(=O)c2cc3c(s2)CC2(CC2)CC32NCCc3ccc(Cl)cc32)C[C@@H]1O (some centres unmarked) [Compound 151] | ≥ 7.30 |
| NS(=O)(=O)OC[C@H]1C[C@@H](Nc2ncncc2C(=O)c2cc3c(s2)COCC32NCCc3c(Cl)cc(Cl)cc32)C[C@@H]1O (some centres unmarked) [Compound 100] | 6.70 to 7.30 |
| NS(=O)(=O)OC[C@H]1C[C@@H](Nc2ncncc2C(=O)c2cc3c(s2)CN(CC(F)(F)F)CC32NCCc3ccc(Cl)cc32)C[C@@H]1O (some centres unmarked) [Compound 187] | ≥ 7.30 |
| NS(=O)(=O)OC[C@H]1C[C@@H](Nc2ncncc2C(=O)c2cc3c(s2)CCC[C@]32NCCc3cc(Cl)c(F)cc32)C[C@@H]1O [Compound 213] | ≥ 7.30 |
| NS(=O)(=O)OC[C@H]1C[C@@H](Nc2ncncc2C(=O)c2cc3c(s2)CC[C@]32NCCc3ccc(C(F)(F)F)cc32)C[C@@H]1O [Compound 226] | 6.70 to 7.30 |
| C#Cc1ccc2c(c1)[C@@]1(CCCc3sc(C(=O)c4cncnc4N[C@@H]4C[C@H](COS(N)(=O)=O)[C@@H](O)C4)cc31)NCC2 [Compound 204] | 6.70 to 7.30 |
| NS(=O)(=O)OC[C@H]1C[C@@H](Nc2ncncc2C(=O)c2cc3c(s2)CCC32NCCc3cc(F)c(Cl)cc32)C[C@@H]1O (some centres unmarked) [Compound 69] | ≥ 7.30 |
| NS(=O)(=O)OC[C@H]1C[C@@H](Nc2ncncc2C(=O)c2cc3c(s2)CCCC32NCCc3ccncc32)C[C@@H]1O (some centres unmarked) [Compound 34] | 6.70 to 7.30 |
| NS(=O)(=O)OC[C@H]1C[C@@H](Nc2ncncc2C(=O)c2cc3c(s2)COC[C@]32NCCc3cc(Cl)c(Cl)cc32)C[C@@H]1O [Compound 99] | 6.70 to 7.30 |
| N#Cc1ccc2c(c1)C1(CCc3sc(C(=O)c4cncnc4N[C@@H]4C[C@H](COS(N)(=O)=O)[C@@H](O)C4)cc31)NCC2 (some centres unmarked) [Compound 52] | 6.70 to 7.30 |
| NS(=O)(=O)OC[C@H]1C[C@@H](Nc2ncncc2C(=O)c2cc3c(s2)CCC[C@]32NCCc3ccccc32)C[C@@H]1O [Compound 3] | ≥ 7.30 |
| NS(=O)(=O)OC[C@H]1C[C@@H](Nc2ncncc2C(=O)c2cc3c(s2)CCC[C@@]32NCCc3cnc(Cl)cc32)C[C@@H]1O [Compound 134] | < 6.70 |
| NS(=O)(=O)OC[C@H]1C[C@@H](Nc2ncncc2C(=O)c2cc3c(s2)C=CC32NCCc3ccc(F)cc32)C[C@@H]1O (some centres unmarked) [Compound 79] | 6.70 to 7.30 |
| NS(=O)(=O)OC[C@H]1C[C@@H](Nc2ncncc2C(=O)c2cc3c(s2)CCCC32NCCc3cc(F)c(Cl)c(F)c32)C[C@@H]1O (some centres unmarked) [Compound 32] | 6.70 to 7.30 |
| NS(=O)(=O)OC[C@H]1C[C@@H](Nc2ncncc2C(=O)c2nc3c(s2)COC[C@@]32NCCc3ccc(Cl)cc32)C[C@@H]1O [Compound 125] | < 6.70 |
| NS(=O)(=O)OC[C@H]1C[C@@H](Nc2ncncc2C(=O)c2cc3c(s2)CSCC32NCCc3cnc(Cl)cc32)C[C@@H]1O (some centres unmarked) [Compound 142] | 6.70 to 7.30 |
| CN1Cc2sc(C(=O)c3cncnc3N[C@@H]3C[C@H](COS(N)(=O)=O)[C@@H](O)C3)cc2C2(C1)OCCc1ccccc12 (some centres unmarked) [Compound 253] | 6.70 to 7.30 |
| NS(=O)(=O)OC[C@H]1C[C@@H](Nc2ncncc2C(=O)c2cc3c(s2)CSC[C@]32NCCc3cnc(Cl)cc32)C[C@@H]1O [Compound 144] | ≥ 7.30 |
| NS(=O)(=O)OC[C@H]1C[C@@H](Nc2ncncc2C(=O)c2nc3c(s2)COCC32NCCc3ccc(Cl)cc32)C[C@@H]1O (some centres unmarked) [Compound 124] | < 6.70 |
| CN1Cc2sc(C(=O)c3cncnc3N[C@@H]3C[C@H](COS(N)(=O)=O)[C@@H](O)C3)cc2[C@]2(C1)OCCc1ccc(Cl)cc12 [Compound 261] | ≥ 7.30 |

Same assay, conditions: 6 h incubation, numeric values, read-out: SUMO IF IC50

| SMILES | pIC50 |
| --- | --- |
| NS(=O)(=O)OC[C@H]1C[C@@H](Nc2ncncc2C(=O)c2cc3c(s2)CN(C2CC2)C[C@]32NCCc3ccc(Cl)cc32)C[C@@H]1O [Compound 117] | 7.72 |
| [2H]C1([2H])Cc2ccc(Cl)cc2[C@@]2(CCCc3sc(C(=O)c4cncnc4N[C@@H]4C[C@H](COS(N)(=O)=O)[C@@H](O)C4)cc32)N1 [Compound 198] | 7.54 |
| C=CCN1Cc2sc(C(=O)c3cncnc3N[C@@H]3C[C@H](COS(N)(=O)=O)[C@@H](O)C3)cc2[C@@]2(C1)NCCc1ccc(Cl)cc12 [Compound 191] | < 6.00 |
| CN1Cc2sc(C(=O)c3cncnc3N[C@@H]3C[C@H](COS(N)(=O)=O)[C@@H](O)C3)cc2[C@]2(C1)NCCc1ccc(Cl)cc12 [Compound 114] | 7.64 |
| NS(=O)(=O)OC[C@H]1C[C@@H](Nc2ncncc2C(=O)c2cc3c(s2)CN(CC(F)(F)F)C[C@]32NCCc3ccc(Cl)cc32)C[C@@H]1O [Compound 189] | 7.61 |
| CCN1Cc2sc(C(=O)c3cncnc3N[C@@H]3C[C@H](COS(N)(=O)=O)[C@@H](O)C3)cc2[C@@]2(C1)NCCc1ccc(Cl)cc12 [Compound 182] | < 6.00 |
| [2H]C1([2H])CN[C@]2(CCCc3sc(C(=O)c4cncnc4N[C@@H]4C[C@H](COS(N)(=O)=O)[C@@H](O)C4)cc32)c2cc(Cl)ccc21 [Compound 201] | 7.58 |

— patent US20260035382A1, “COMPOUNDS AS SUMO ACTIVATING ENZYME INHIBITORS” (WIGEN BIOMEDICINE TECHNOLOGY (SHANGHAI) CO., LTD., priority 2022, published 2026)
